Laboratory results from patent US20230117324A1, “OXAZINE MONOACYLGLYCEROL LIPASE (MAGL) INHIBITORS” (Hoffmann-La Roche Inc., priority 2018, published 2023).

What follows are molecules tested against T1, MAGL (Homo sapiens, UniProt Q99685) (assay: MAGL inhibition, 2-AG assay (hydrolysis of 2-arachidonoylglycerol, arachidonic acid by mass spectrometry)). Details: 2-AG assay (footnote [b]).
T1 sequence (Q99685 1-303): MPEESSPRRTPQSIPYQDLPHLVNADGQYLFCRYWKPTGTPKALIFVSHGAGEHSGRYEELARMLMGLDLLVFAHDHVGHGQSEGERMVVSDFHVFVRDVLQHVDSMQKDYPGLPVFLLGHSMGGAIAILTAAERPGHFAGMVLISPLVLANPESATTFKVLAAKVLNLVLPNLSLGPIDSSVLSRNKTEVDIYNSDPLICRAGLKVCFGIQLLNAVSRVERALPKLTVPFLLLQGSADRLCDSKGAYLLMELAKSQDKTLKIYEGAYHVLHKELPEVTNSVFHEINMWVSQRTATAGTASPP
Type: biochemical
Procedure, shortened: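 Human MAGL […] was preincubated 15 min at RT with compound ([…], 3-fold steps) in 50 mM Tris, 1 mM EDTA, 0.01% Tween. 2-AG (8 μM) was then added for 30 min at RT. Arachidonic acid was quantified by RapidFire SPE–triple quadrupole MS in negative ESI as its ratio to a d8-arachidonic acid standard.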
In the case of `O=C1CO[C@H]2CCN(C(=O)N3CC(c4ccc(-c5ccc(Cl)cc5)cc4)C3)C[C@H]2N1` [Example 111, (4aR,8aS)-6-(3-(4′-Chloro-[1,1′-biphenyl]-4-yl)azetidine-1-carbonyl)hexahydro-2H-pyrido[4,3-b][1,4]oxazin-3(4H)-one], the IC50 is reported as 0.4 nM.
In the case of `O=C1CO[C@H]2CCN(C(=O)N3CC(c4ccc(C(F)(F)F)cc4F)C3)C[C@H]2N1` [Example 210, (4aR,8aS)-6-(3-(2-Fluoro-4-(trifluoromethyl)phenyl)azetidine-1-carbonyl)hexahydro-2H-pyrido[4,3-b][1,4]oxazin-3(4H)-one], the IC50 is reported as 112 nM.
For `O=C1CO[C@H]2CCN(C(=O)N3CC(c4cccc(Br)c4)C3)C[C@H]2N1` [Example 139, (4aR,8aS)-6-(3-(3-Bromophenyl)azetidine-1-carbonyl)hexahydro-2H-pyrido[4,3-b][1,4]oxazin-3(4H)-one], the IC50 was 27 nM.
`O=C1CO[C@H]2CCN(C(=O)N3CCC(C(c4ccc(F)cc4)c4nc(C5CC5)no4)CC3)C[C@H]2N1` (single isomer, unassigned) [Example 94, (4aR,8aS)-6-(4-((R or S)-(3-Cyclopropyl-1,2,4-oxadiazol-5-yl)(4-fluorophenyl)methyl)piperidine-1-carbonyl)hexahydro-2H-pyrido[4,3-b][1,4]oxazin-3(4H)-one] showed an IC50 of 2 nM.
For `O=C1CO[C@H]2CCN(C(=O)N3CC(c4ccn(-c5ccc(Cl)cc5Cl)n4)C3)C[C@H]2N1` [Example 257, (4aR,8aS)-6-[3-[1-(2,4-Dichlorophenyl)pyrazol-3-yl]azetidine-1-carbonyl]-4,4a,5,7,8,8a-hexahydropyrido[4,3-b][1,4]oxazin-3-one], the IC50 was 233 nM.
`O=C1CO[C@H]2CCN(C(=O)N3CCC(C(c4ccccc4)c4cccnn4)CC3)C[C@H]2N1` (stereo partly drawn) [Example 218, (4aR,8aS)-6-[4-[Phenyl(pyridazin-3-yl)methyl]piperidine-1-carbonyl]-4,4a,5,7,8,8a-hexahydropyrido[4,3-b][1,4]oxazin-3-one] gave an IC50 of 54 nM.
For `O=C1CO[C@H]2CCN(C(=O)N3CCC(C4(c5ccc(C(F)(F)F)cc5)CC4)CC3)C[C@H]2N1` [Example 52, (4aR,8aS)-6-(4-(1-(4-(Trifluoromethyl)phenyl)cyclopropyl)piperidine-1-carbonyl)hexahydro-2H-pyrido[4,3-b][1,4]oxazin-3(4H)-one], the IC50 was 21 nM.
`O=C1CO[C@H]2CCN(C(=O)N3CCC(C(c4ccc(F)cc4)c4nc(C(F)(F)F)no4)CC3)C[C@H]2N1` (stereo partly drawn) [Example 102, (4aR,8aS)-6-(4-((4-Fluorophenyl)(3-(trifluoromethyl)-1,2,4-oxadiazol-5-yl)methyl)piperidine-1-carbonyl)hexahydro-2H-pyrido[4,3-b][1,4]oxazin-3(4H)-one] gave an IC50 of 5 nM.
Work on `O=C1CO[C@H]2CCN(C(=O)N3CC(c4ccc(S(F)(F)(F)(F)F)cc4)C3)C[C@H]2N1` [Example 180, (4aR,8aS)-6-(3-(4-(Pentafluoro-16-sulfaneyl)phenyl)azetidine-1-carbonyl)hexahydro-2H-pyrido[4,3-b][1,4]oxazin-3(4H)-one] yielded an IC50 of 9 nM.
Molecule `O=C1CO[C@H]2CCN(C(=O)N3CC(c4ccc(N5CCC(F)C5)cc4)C3)C[C@H]2N1` (stereo partly drawn) [Example 216, (4aR,8aS)-6-(3-(4-(3-Fluoropyrrolidin-1-yl)phenyl)azetidine-1-carbonyl)hexahydro-2H-pyrido[4,3-b][1,4]oxazin-3(4H)-one] has an IC50 of 23 nM.
For `CC(OC1CCN(C(=O)N2CC[C@@H]3OCC(=O)N[C@@H]3C2)CC1)c1ccc(C(F)(F)F)cc1` (stereo partly drawn) [Example 93, (4aR,8aS)-6-[4-[1-[4-(Trifluoromethyl)phenyl]ethoxy]piperidine-1-carbonyl]-4,4a,5,7,8,8a-hexahydropyrido [4,3-b][1,4]oxazin-3-one], the IC50 was 73 nM.
Work on `COc1cccc(C(c2ccccc2)C2CCN(C(=O)N3CC[C@@H]4OCC(=O)N[C@@H]4C3)CC2)c1` (single isomer, unassigned) [Example 64, (4aR,8aS)-6-(4-((S or R)-(3-Methoxyphenyl)(phenyl)methyl)piperidine-1-carbonyl)hexahydro-2H-pyrido[4,3-b][1,4]oxazin-3(4H)-one] yielded an IC50 of 0.2 nM.
In the case of `CC1(c2ccc(Br)cc2)CN(C(=O)N2CC[C@@H]3OCC(=O)N[C@@H]3C2)C1` [Example 124, (4aR,8aS)-6-(3-(4-Bromophenyl)-3-methylazetidine-1-carbonyl)hexahydro-2H-pyrido[4,3-b][1,4]oxazin-3(4H)-one], the IC50 is reported as 113 nM.
Work on `O=C1CO[C@H]2CCN(C(=O)N3CCC(N4Cc5cccc(Cl)c5C4)CC3)C[C@H]2N1` [Example 264, (4aR,8aS)-6-[4-(4-Chloroisoindolin-2-yl)piperidine-1-carbonyl]-4,4a,5,7,8,8a-hexahydropyrido[4,3-b][1,4]oxazin-3-one] yielded an IC50 of 146 nM.
Work on `O=C1CO[C@H]2CCN(C(=O)N3CCC(N4CC5(CC5)c5cc(Cl)ccc54)CC3)C[C@H]2N1` [Example 265, (4aR,8aS)-6-[4-(5′-Chlorospiro[cyclopropane-1,3′-indoline]-1′-yl)piperidine-1-carbonyl]-4,4a,5,7,8,8a-hexahydropyrido[4,3-b][1,4]oxazin-3-one] yielded an IC50 of 58 nM.
Molecule `Cn1nc(OC(c2ccc(F)cc2)C2CCN(C(=O)N3CC[C@@H]4OCC(=O)N[C@@H]4C3)CC2)cc1C(F)(F)F` (stereo partly drawn) [Example 251, (4aR,8aS)-6-(4-((4-Fluorophenyl)((1-methyl-5-(trifluoromethyl)-1H-pyrazol-3-yl)oxy)methyl)piperidine-1-carbonyl)hexahydro-2H-pyrido[4,3-b][1,4]oxazin-3(4H)-one] has an IC50 of 1 nM.
Work on `O=C1CO[C@H]2CCN(C(=O)N3CCC(c4ccccc4)CC3)C[C@H]2N1` [Example 186, (4aR,8aS)-6-(4-Phenylpiperidine-1-carbonyl)hexahydro-2H-pyrido[4,3-b][1,4]oxazin-3(4H)-one] yielded an IC50 of 1000 nM.
For `O=C1CO[C@H]2CCN(C(=O)N3CCC(c4cccc(OC(F)(F)F)c4)C3)C[C@H]2N1` (single isomer, unassigned) [Example 222, (4aR,8aS)-6-[3-(R or S)-[3-(Trifluoromethoxy)phenyl]pyrrolidine-1-carbonyl]-4,4a,5,7,8,8a-hexahydropyrido[4,3-b][1,4]oxazin-3-one], the IC50 was 114 nM.
Work on `O=C1CO[C@H]2CCN(C(=O)N3CC(c4ccc(-c5ccc(Cl)cc5Cl)cc4)C3)C[C@H]2N1` [Example 113, (4aR,8aS)-6-(3-(2′,4′-Dichloro-[1,1′-biphenyl]-4-yl)azetidine-1-carbonyl)hexahydro-2H-pyrido[4,3-b][1,4]oxazin-3(4H)-one] yielded an IC50 of 0.04 nM.
`CC(C)(C)c1ccc(C2CN(C(=O)N3CC[C@@H]4OCC(=O)N[C@@H]4C3)C2)cc1` [Example 140, (4aR,8aS)-6-(3-(4-(tert-Butyl)phenyl)azetidine-1-carbonyl)hexahydro-2H-pyrido[4,3-b][1,4]oxazin-3(4H)-one] showed an IC50 of 0.6 nM.
`O=C1CO[C@H]2CCN(C(=O)N3CC(c4ccccc4)C3)C[C@H]2N1` [Example 185, (4aR,8aS)-6-(3-Phenylazetidine-1-carbonyl)hexahydro-2H-pyrido[4,3-b][1,4]oxazin-3(4H)-one] gave an IC50 of 139 nM.
For `COc1ccc(C(c2ccccc2)C2CCN(C(=O)N3CC[C@@H]4OCC(=O)N[C@@H]4C3)CC2)cc1OC` (single isomer, unassigned) [Example 87, (4aR,8aS)-6-(4-((S or R)-(3,4-Dimethoxyphenyl)(phenyl)methyl)piperidine-1-carbonyl)hexahydro-2H-pyrido[4,3-b][1,4]oxazin-3(4H)-one], the IC50 was 0.4 nM.
Work on `CC(OC1CN(c2ccc(C3CN(C(=O)N4CC[C@@H]5OCC(=O)N[C@@H]5C4)C3)cc2)C1)C(F)(F)F` (stereo partly drawn) [Example 138, (4aR,8aS)-6-(3-(4-(3-((1,1,1-Trifluoropropan-2-yl)oxy)azetidin-1-yl)phenyl)azetidine-1-carbonyl)hexahydro-2H-pyrido[4,3-b][1,4]oxazin-3(4H)-one] yielded an IC50 of 1 nM.
`Cc1ccc(-c2ccc(C3CN(C(=O)N4CC[C@@H]5OCC(=O)N[C@@H]5C4)C3)cc2)cc1` [Example 144, (4aR,8aS)-6-(3-(4′-Methyl-[1,1′-biphenyl]-4-yl)azetidine-1-carbonyl)hexahydro-2H-pyrido[4,3-b][1,4]oxazin-3(4H)-one] gave an IC50 of 1 nM.
Work on `Cc1ccc(C(c2ccccc2)C2CCN(C(=O)N3CC[C@@H]4OCC(=O)N[C@@H]4C3)CC2)cc1` (single isomer, unassigned) [Example 84, (4aR,8aS)-6-[4-[(S or R)-Phenyl(p-tolyl)methyl]piperidine-1-carbonyl]-4,4a,5,7,8,8a-hexahydropyrido[4,3-b][1,4]oxazin-3-one] yielded an IC50 of 0.1 nM.
`COc1ccc(C(c2ccccc2)C2CCN(C(=O)N3CC[C@@H]4OCC(=O)N[C@@H]4C3)CC2)cc1OC` (single isomer, unassigned) [Example 74, (4aR,8aS)-6-(4-((R or S)-(3,4-Dimethoxyphenyl)(phenyl)methyl)piperidine-1-carbonyl)hexahydro-2H-pyrido[4,3-b][1,4]oxazin-3(4H)-one] showed an IC50 of 2 nM.
With `O=C1CO[C@H]2CCN(C(=O)N3CC(c4ccc(-c5ccc(F)cc5F)cc4)C3)C[C@H]2N1` [Example 126, (4aR,8aS)-6-(3-(2′,4′-Difluoro-[1,1′-biphenyl]-4-yl)azetidine-1-carbonyl)hexahydro-2H-pyrido[4,3-b][1,4]oxazin-3(4H)-one] the IC50 was 0.3 nM.
